Reference: patent publication US9958451B2, “Near-infrared fluorescent dyes with large stokes shifts” (Portland State University, priority 2011, dated 2018)
“And” between values parts separate entries of the source, which are not always exact repeats. Equal values may be shown once. Marks after values point to notes of the source that are not given here. Each block holds one compound with its values, some of them ahead of it.

What was measured:
[1] = Spectral properties of rhodamine bis-boronic acids and precursors in DMSO:buffer; assay type: physicochemical; design: Brightness: scale not given here
Experimental: Characterization: The spectral properties of compounds 50-53 were determined. Absorption and fluorescence spectra of solutions of the rhodamine bis-boronic acids 51 and 53, and their respective precursors 50 and 52, are shown in FIGS. 27A-C (in DMSO:buffer 1:9) and 27D-F (DMSO:buffer 1:1). […] Excitation and emission spectra were normalized to their absorbance at the excitation wavelength, and are proportional to quantum yield.

[2] = Emission in blood (whole porcine blood in buffer)
Experimental: Compound 15d (Table 1) was diluted to 40 μM in 50% DMSO:50% 25 mM pH 9 phosphate buffer. […] Emission remained stable for at least 1 hr. The absorption profile matches the output of a laser pointer (635-670 nm; max output <5 mW).
Its absorbance and fluorescence spectra faded over time, but remained visible after about an hour (although with only 10-20% of its original emission intensity). Molecular modeling has shown favorable structural interactions of compounds 5f and 24 with glutathione (FIG. 12—compound 24).
Spectral behavior of compound 15g (type [c] annulated seminaphtho-rhodamine methyl ester (free amine) with the 3-1 transposition) was investigated to determine its potential for sensing use in whole blood. Solutions of compound 15g in 10% or 90% by volume whole blood (porcine blood in Na-EDTA, Lampire Biological Laboratories) were investigated in a 3×3 mm cell. The fluorophore was first dissolved in 50 mM, pH 7.4 phosphate buffer to ensure complete dissolution, and in the case of 90% whole blood, this stock solution was mixed with whole blood in a 1:9 ratio. In the case of 10% whole blood, 1 part whole blood was added to 9 parts of an appropriately diluted (with deionized water) solution of compound 15g stock. In both cases, the final concentration of compound 15g was 150 μM with a final phosphate buffer concentration of 5 mM. […] Throughout much of the spectrum, the dye produces a greater absorbance than the blood alone. The change in absorbance between the two spectra provides the effective absorbance of the dye. […] The broad absorption and large Stokes shift of this dye allows significant excitation with greater than 50% efficiency at wavelengths beyond that of the major hemoglobin peaks in blood.

[3] = Fluorescence emission spectra, 15 μM in 90% aqueous, 10% DMSO; assay type: physicochemical; conditions: for Red-shifted emission from 3-1 transposition versus known regiochemistry: longest wavelength-emitting species
Experimental: Compounds 21 and 7 also were characterized by their fluorescence emission spectra. Fluorescence was measured using 15 μM solutions of each compound in a solution that was 90% aqueous, 10% DMSO. For compound 21, the longest wavelength emission observed from the dianions occurred near 680 nm at pH 9. For compound 7 (transposed), the longest wavelength emission observed from the monoanion occurred near 800 nm at pH 9.
Compounds 22 and 8 also were characterized by their fluorescence emission spectra. Fluorescence was measured using 15 μM solutions of each compound in a solution that was 90% aqueous, 10% DMSO For compound 22, the longest wavelength emission observed from the anion occurred near 690 nm at pH 9. […] Given the greater than 800 nm absorbance peak and the typically large Stokes shifts observed in this class of compounds, it is likely that the emission was beyond the working range of the instrument (>850 nm).
Compounds 20 and 15a also were characterized by their fluorescence emission spectra. Fluorescence was measured using 15 μM solutions of each compound in a solution that was 90% aqueous, 10% DMSO. For compound 20a, the longest wavelength emission observed from its corresponding anion, compound 20c, occurred near 640 nm in NaOH (pH 12). For compound 15a (transposed), the longest wavelength emission observed from the corresponding anion, compound 15h, occurred near 760 nm in NaOH.
Compound 15b also was characterized by its fluorescence emission spectrum and compared to C.SNARF-5. Fluorescence was measured using a 15 μM solution of compound 15b in a solution that was 90% aqueous, 10% DMSO. For C.SNARF-5, the longest wavelength emission observed from the anion occurred near 632 nm (Whitaker et al., Anal. Biochem. 1991, 194, 330-344). For compound 15b (transposed), the longest wavelength emission observed from the phenoxide occurred near 770 nm.
Fluorescence was measured using a 15 μM solution of compound 15d in a solution that was 90% aqueous, 10% DMSO. […] For compound 15d (transposed), the longest wavelength emission observed from the phenoxide occurred near 780 nm (NaOH, pH 12).
Compounds 20b and 15g also were characterized by their fluorescence emission spectra. Fluorescence was measured using 15 μM solutions of each compound in a solution that was 90% aqueous, 10% DMSO. For compound 20b, the longest wavelength emission observed from the cation occurred near 640 nm at pH 7.4. For compound 15g (transposed), the longest wavelength emission observed from the cation occurred near 770 nm at pH 7.4.

[4] = UV-visible absorbance spectroscopy, 15 μM in 90% aqueous, 10% DMSO; assay type: physicochemical; conditions: for Red shift of absorption spectra from 3-1 transposition versus known regiochemistry: depending on the ionization state
Experimental: Compounds 21 and 7 were characterized by UV-visible spectroscopy (FIG. 15). Absorbance was measured using 15 μM solutions of each compound in a solution that was 90% aqueous, 10% DMSO. The peaks at 600 nm (light dashed line) and 675 nm (light solid line) represent the dianions of compounds 21 and 7, respectively, in NaOH (pH 12). The peaks at 590 nm (heavy dashed line) and 650 nm (heavy solid line) represent a mix of mono- and dianions of compound 21 at pH 7.4 and predominantly monoanions of compound 7 at pH 9, respectively.
Compounds 22 and 8 were characterized by UV-visible spectroscopy (FIG. 16). Absorbance was measured using 15 μM solutions of each compound in a solution that was 90% aqueous, 10% DMSO. The peaks at 610 nm (light dashed line) and 685 nm (light solid line) represent the anions of compounds 22 and 8, respectively, in NaOH (pH 12). The peaks at 605 nm (heavy dashed line) and 805 nm (heavy solid line) represent the neutral forms of compounds 22 and 8 at pH 7.4, respectively.
Compounds 20a and 15a were characterized by UV-visible spectroscopy (FIG. 17). Absorbance was measured using 15 μM solutions of each compound in a solution that was 90% aqueous, 10% DMSO. The peaks at 545 nm (light dashed line) and 595 nm (light solid line) represent the respective anions, compounds 20c and 15h, in NaOH (pH 12).
Compound 15b (free amino) was characterized by UV-visible spectroscopy (FIG. 18), and compared to C.SNARF-5 (literature, SNARF=seminaphthorhodafluor). Absorbance was measured using a 15 μM solution of compound 15b in a solution that was 90% aqueous, 10% DMSO. The peak at 535 nm (heavy line) represents the predominantly phenolic form of 15b at pH 6. The peak at 615 nm (light line) represents the phenoxide of compound 15b at in NaOH (pH12). In comparison, C.SNARF-5 produces a peak at 550 nm (anionic form) and a peak at 485 nm (neutral form) (Whitaker et al., Anal. Biochem. 1991, 194, 330-344).
Absorbance was measured using 15 μM solutions of compound 15d in a solution that was 90% aqueous, 10% DMSO. The peak at 570 nm (heavy line) represents the predominantly neutral form of 15d at pH 6. The peak at 630 nm (light line) represents the phenoxide of compound 15d in NaOH (pH 12).
Compounds 20b and 15g were characterized by UV-visible spectroscopy (FIG. 20). Absorbance was measured using 15 μM solutions of each compound in a solution that was 90% aqueous, 10% DMSO. The peaks at 540 nm (dashed line) and 570 nm (solid line) represent the cations of compounds 20b and 15g, respectively, at pH 7.4.

[5] = Absorbance and fluorescence in methanol; assay type: physicochemical
Experimental: Absorbance and fluorescence of compounds 22 and 8 also were measured in methanol. […] Thus, placement of the hydroxyl group proximal to the xanthene internal oxygen in compound 8 produced a bathochromic shift of 103 nm in the absorption spectrum. The transposition also imparted a corresponding shift in the excitation spectrum, and a large bathochromic shift of 128 nm in the fluorescence emission. Importantly, compound 8 absorbs and emits in the near-infrared with absorption and emission maxima of 701 nm and 816 nm, respectively.
Absorbance and fluorescence of compounds 20a and 15a also were measured in methanol. […] Thus, placement of the hydroxyl group proximal to the xanthene internal oxygen in compound 15a produced a bathochromic shift of 15 nm in the absorbance spectrum. The transposition also imparted a corresponding shift in the excitation spectrum, and a large bathochromic shift of 32 nm in the fluorescence emission.

[6] = DMSO:buffer 1:1, pH 7.4 phosphate buffer 12.5 mM
[7] = DMSO:buffer 1:9, pH 7.4 phosphate buffer 12.5 mM
[8] = NaOH (pH 12), anionic/phenoxide form, 90% aqueous 10% DMSO
[9] = pH 6, predominantly neutral/phenolic form
[10] = 40 μM in 50% DMSO:50% 25 mM pH 9 phosphate buffer

Structure (SMILES): N=c1ccc2c(-c3ccccc3C(=O)O)c3ccc4cc(N)ccc4c3oc-2c1 [Compound 50, seminaphthorhodamine]
Quantum yield ([1]; DMSO buffer 1:9): 19%
Red shift of maximum absorption compared to rhodamine 110 ([1]; DMSO buffer 1:9): 40 nm
Red shift of maximum emission compared to rhodamine 110 ([1]; DMSO buffer 1:9): ~100 nm
Brightness ([1]; DMSO:buffer 1:1): 6298
Em ([1]; DMSO:buffer 1:1): 630 nm
Ex ([1]; DMSO:buffer 1:1): 542 nm
Q.Y. ([1]; DMSO:buffer 1:1): 0.30
ε ([1]; DMSO:buffer 1:1): 21064 M⁻¹ cm⁻¹
Abs [1, 6]: 542 nm
Brightness ([1]; DMSO:buffer 1:9): 8083
Em ([1]; DMSO:buffer 1:9): 628 nm
Ex ([1]; DMSO:buffer 1:9): 534 nm
Q.Y. ([1]; DMSO:buffer 1:9): 0.19
ε ([1]; DMSO:buffer 1:9): 42701 M⁻¹ cm⁻¹
Abs [1, 7]: 535 nm

Structure (SMILES): Cc1ccc(C)c(-c2c3ccc4cccc(O)c4c3oc3c2ccc2cccc(=O)c23)c1 [Compound 4a]
Stability of absorption in the blood solution ([2]; blood solution): remained stable over extended periods of time

Structure (SMILES): COC(=O)c1ccccc1-c1c2ccc(=N)cc-2oc2c1ccc1cc(N)ccc12 [Compound 20b]
Stokes shift [3]: about 100 nm
Longest wavelength emission ([3]; pH 7.4, cation): ~640 nm
Absorbance peak ([4]; pH 7.4, 90% aqueous 10% DMSO): 540 nm

Structure (SMILES): N=c1ccc2c(ccc3c(-c4ccccc4C(=O)O)c4ccc5cc(N)ccc5c4oc32)c1 [Compound 52, naphthorhodamine]
Quantum yield ([1]; DMSO buffer 1:9): 10%
Brightness ([1]; DMSO:buffer 1:1): 121^g
Em ([1]; DMSO:buffer 1:1): 676 nm
Ex ([1]; DMSO:buffer 1:1): 596 nm
Q.Y. ([1]; DMSO:buffer 1:1): 0.11
ε ([1]; DMSO:buffer 1:1): 1081 M⁻¹ cm⁻¹
Abs [1, 6]: 602 nm
Brightness ([1]; DMSO:buffer 1:9): 1144^d
Em ([1]; DMSO:buffer 1:9): 668 nm
Ex ([1]; DMSO:buffer 1:9): 584 nm
Q.Y. ([1]; DMSO:buffer 1:9): 0.10
ε ([1]; DMSO:buffer 1:9): 11994 M⁻¹ cm⁻¹
Abs [1, 7]: 578 nm

Structure (SMILES): COC(=O)c1ccccc1-c1c2ccc3cc(O)ccc3c2oc2c1ccc1cc(=O)ccc12 [Compound 22, naphthofluorescein methyl ester]
Stokes shift [3]: about 80 nm
Longest wavelength emission ([3]; pH 9): ~690 nm
Absorption maximum [5]: 598 nm
Emission maximum [5]: 688 nm
Absorbance peak [4, 8]: 610 nm
Absorbance peak ([4]; pH 7.4, 90% aqueous 10% DMSO): 605 nm

Structure (SMILES): O=C1OC2(c3ccccc31)c1ccc3cc(O)ccc3c1Oc1c2ccc2cc(O)ccc12 [Compound 21, Naphthofluorescein, reference compound]
Stokes shift [3]: about 80 nm
Longest wavelength emission ([3]; pH 9): ~680 nm
Absorbance peak [4, 8]: 600 nm
Absorbance peak ([4]; pH 7.4, 90% aqueous 10% DMSO): 590 nm

The next lines start with the values.

Enhancement of the Stokes shift by 3-1 transposition [3]: about 73 nm
Stokes shift [3]: about 155 nm
Red-shifted emission from 3-1 transposition versus known regiochemistry [3]: about 138 nm
Longest wavelength emission ([3]; pH not stated): ~770 nm
Red shift of absorption spectra from 3-1 transposition versus known regiochemistry ([4]; 90% aqueous 10% DMSO): 50-65 nm
Absorbance peak [4, 8]: 615 nm
Absorbance peak [4, 9]: 535 nm
Structure (SMILES): COC(=O)c1ccccc1-c1c2ccc(=N)cc-2oc2c1ccc1cccc(O)c12 [Compound 15b]

Stokes shift [3]: about 95 nm
Longest wavelength emission ([3]; NaOH (pH 12), anion/phenoxide): ~640 nm
Absorbance peak [4, 8]: 545 nm
Structure (SMILES): COC(=O)c1ccccc1-c1c2ccc(=O)cc-2oc2c1ccc1cc(O)ccc12 [Compound 20c]

Enhancement of the Stokes shift by 3-1 transposition [3]: about 92 nm
Stokes shift [3]: about 150 nm
Longest wavelength emission ([3]; NaOH (pH 12), anion/phenoxide): ~780 nm
Red-shifted emission from 3-1 transposition versus known regiochemistry [3]: about 149 nm
λmax em [2, 10]: ~790 nm
λmax ex [2, 10]: ~690 nm
Time emission remained stable ([2]; 5% whole blood): at least 1 hr
Loss of fluorescence on inclusion of whole blood ([2]; final blood concentration 5% by volume): only minimal loss of fluorescence
Red shift of absorption spectra from 3-1 transposition versus known regiochemistry ([4]; 90% aqueous 10% DMSO): 55-57 nm
Absorbance peak [4, 8]: 630 nm
Absorbance peak [4, 9]: 570 nm
Structure (SMILES): COC(=O)c1ccccc1-c1c2ccc(=[N+](C)C)cc-2oc2c1ccc1cccc(O)c12 [Compound 15d]

Absorption maximum [5]: 501 nm and 536 nm
Bathochromic shift in the absorption spectrum versus known regiochemistry [5]: 15 nm
Bathochromic shift in the fluorescence emission versus known regiochemistry [5]: 32 nm
Emission maximum [5]: 582 nm
Red shift of absorption spectra from 3-1 transposition versus known regiochemistry ([4]; 90% aqueous 10% DMSO): 10-55 nm
Absorbance peak [4, 9]: 525 nm
Structure (SMILES): COC(=O)c1ccccc1-c1c2ccc(=O)cc-2oc2c1ccc1cccc(O)c12 [Compound 15a]

Absorption maximum [5]: 487 nm and 521 nm
Emission maximum [5]: 550 nm
Absorbance peak [4, 9]: 515 nm
Structure (SMILES): COC(=O)c1ccccc1-c1c2ccc(=O)cc-2oc2c1ccc1cc(O)ccc12 [Compound 20a]
